The values that follow come from patent publication US10227323B2, “Glucosylceramide synthase inhibitors for the treatment of diseases” (BIOMARIN PHARMACEUTICAL INC., priority 2013, dated 2019).

Structures are written as SMILES.

As a reminder, the IC50 is the point on the concentration scale where inhibition reaches its midpoint.

The target of the first experiment is T1, GCS (Canis lupus familiaris, UniProt A0A8I3MXG6).
T1 sequence (A0A8I3MXG6 1-394): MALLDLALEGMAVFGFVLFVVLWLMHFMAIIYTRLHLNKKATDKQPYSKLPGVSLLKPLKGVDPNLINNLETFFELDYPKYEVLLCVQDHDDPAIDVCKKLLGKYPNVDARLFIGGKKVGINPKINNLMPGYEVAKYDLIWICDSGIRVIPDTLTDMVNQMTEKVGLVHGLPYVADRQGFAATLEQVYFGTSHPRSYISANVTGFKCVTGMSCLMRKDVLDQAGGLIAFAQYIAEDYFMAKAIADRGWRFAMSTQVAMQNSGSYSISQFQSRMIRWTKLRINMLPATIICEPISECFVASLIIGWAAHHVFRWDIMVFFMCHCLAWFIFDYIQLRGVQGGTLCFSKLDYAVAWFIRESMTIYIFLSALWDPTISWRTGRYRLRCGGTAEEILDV
Briefly: Assay 1: GCS Enzymatic Assay (MDCK cell lysate, C6-NBD-Ceramide, LC/MS). It is filed as biochemical, canine. The following applies: Table 2; data marked by *. The essentials:
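LC/MS/MS measurement of glucosylceramide and NBD-ceramide after a 1 h, 37 °C reaction with 100 μM UDP-glucose and 10 μM C6-NBD-ceramide gave IC50s or percent inhibition.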
As to `O=C(N[C@H](CN1CCCC1)[C@H](O)c1ccc(OC2CC2)c(Cl)c1)C(F)(F)c1cccc(Oc2ccc(F)cc2)c1` [Compound 206, N-((1R,2R)-1-(3-chloro-4-cyclopropoxyphenyl)-1-hydroxy-3-(pyrrolidin-1-yl)propan-2-yl)-2,2-difluoro-2-(3-(4-fluorophenoxy)phenyl)acetamide], the “% inhibition generated from Assay 1” value is reported as “A* (the compound had a % inhibition of a percent inhibition of greater than or equal to about 50%)”.
Turning to `O=C(N[C@H](CN1CCCC1)[C@H](O)c1ccc2c(c1)OCCO2)C(F)(F)c1csc(-c2ccc(F)cc2)n1` [Compound 211, N-((1R,2R)-1-(2,3-dihydrobenzo[b][1,4]dioxin-6-yl)-1-hydroxy-3-(pyrrolidin-1-yl)propan-2-yl)-2,2-difluoro-2-(2-(4-fluorophenyl)thiazol-4-yl)acetamide], the “% inhibition generated from Assay 1” value was “B* (the compound had a % inhibition of greater than or equal to about 3% but less than about 50%)”.
For `O=C(N[C@H](CN1CCCC1)[C@H](O)c1ccc(OC2CC2)c(Cl)c1)C(F)(F)c1csc(-c2ccc(F)cc2)n1` [Compound 213, N-((1R,2R)-1-(3-chloro-4-cyclopropoxyphenyl)-1-hydroxy-3-(pyrrolidin-1-yl)propan-2-yl)-2,2-difluoro-2-(2-(4-fluorophenyl)thiazol-4-yl)acetamide], the “% inhibition generated from Assay 1” value is recorded as “B* (the compound had a % inhibition of greater than or equal to about 3% but less than about 50%)”.
The same measure, in the same setting: then `O=C(N[C@H](CN1CCCC1)[C@H](O)c1ccc(OC2CC2)c(Cl)c1)C(=O)c1cnc(-c2ccc(F)cc2)s1` [Compound 215, N-((1R,2R)-1-(3-chloro-4-cyclopropoxyphenyl)-1-hydroxy-3-(pyrrolidin-1-yl)propan-2-yl)-2-(2-(4-fluorophenyl)thiazol-5-yl)-2-oxoacetamide], with “B* (the compound had a % inhibition of greater than or equal to about 3% but less than about 50%)”; and `O=C(N[C@H](CN1CCCC1)[C@H](O)c1ccc(OC2CC2)c(Cl)c1)C(F)(F)c1ccc(-c2ccc(F)cc2)s1` [Compound 218, N-((1R,2R)-1-(3-chloro-4-cyclopropoxyphenyl)-1-hydroxy-3-(pyrrolidin-1-yl)propan-2-yl)-2,2-difluoro-2-(5-(4-fluorophenyl)thiophen-2-yl)acetamide], with “B* (the compound had a % inhibition of greater than or equal to about 3% but less than about 50%)”.
`O=C(N[C@H](CN1CCCC1)[C@H](O)c1ccc(OC2CC2)c(Cl)c1)C(=O)c1ccc(-c2ccc(F)cc2)s1` [Compound 219, N-((1R,2R)-1-(3-chloro-4-cyclopropoxyphenyl)-1-hydroxy-3-(pyrrolidin-1-yl)propan-2-yl)-2-(5-(4-fluorophenyl)thiophen-2-yl)-2-oxoacetamide]: the “% inhibition generated from Assay 1” value is “A* (the compound had a % inhibition of a percent inhibition of greater than or equal to about 50%)”.
Consider `O=C(N[C@H](CN1CCCC1)[C@H](O)c1cc(F)c2c(c1)OCCO2)C(F)(F)c1csc(-c2ccc(F)cc2)n1` [Compound 221, 2,2-difluoro-N-((1R,2R)-1-(8-fluoro-2,3-dihydrobenzo[b][1,4]dioxin-6-yl)-1-hydroxy-3-(pyrrolidin-1-yl)propan-2-yl)-2-(2-(4-fluorophenyl)thiazol-4-yl)acetamide], for which the “% inhibition generated from Assay 1” value is recorded as “A* (the compound had a % inhibition of a percent inhibition of greater than or equal to about 50%)”.
Regarding `O=C(N[C@H](CN1CCCC1)[C@H](O)c1ccc(OC2CC2)c(Cl)c1)C(F)(F)c1cnc(-c2ccc(F)cc2)s1` [Compound 222, N-((1R,2R)-1-(3-chloro-4-cyclopropoxyphenyl)-1-hydroxy-3-(pyrrolidin-1-yl)propan-2-yl)-2,2-difluoro-2-(2-(4-fluorophenyl)thiazol-5-yl)acetamide], the “% inhibition generated from Assay 1” value is “B* (the compound had a % inhibition of greater than or equal to about 3% but less than about 50%)”.

Staying with this experiment, now noted: Table 2; data without asterisk; read-out: IC50 (nM) generated from Assay 1.
Regarding `Cn1ncc2cc(-c3ccc(C(F)(F)C(=O)N[C@H](CN4CCCC4)[C@H](O)c4ccc(OC5CC5)c(Cl)c4)cc3)ccc21` [Compound 202, N-((1R,2R)-1-(3-chloro-4-cyclopropoxyphenyl)-1-hydroxy-3-(pyrrolidin-1-yl)propan-2-yl)-2,2-difluoro-2-(4-(1-methyl-1H-indazol-5-yl)phenyl)acetamide], the 50% inhibitory concentration (IC50) is less than 50 nM.
For the molecule `O=C(N[C@H](CN1CCCC1)[C@H](O)c1cc(F)c2c(c1)OCCO2)C(=O)c1cccc(Oc2ccc(F)cc2)c1` [Compound 203, N-((1R,2R)-1-(8-fluoro-2,3-dihydrobenzo[b][1,4]dioxin-6-yl)-1-hydroxy-3-(pyrrolidin-1-yl)propan-2-yl)-2-(3-(4-fluorophenoxy)phenyl)-2-oxoacetamide], the IC50 was less than 50 nM.
Regarding `O=C(N[C@H](CN1CCCC1)[C@H](O)c1ccc(OC2CC2)c(F)c1)C(F)(F)c1ccc(-c2ccc(F)cc2)cc1` [Compound 204, N-((1R,2R)-1-(4-cyclopropoxy-3-fluorophenyl)-1-hydroxy-3-(pyrrolidin-1-yl)propan-2-yl)-2,2-difluoro-2-(4′-fluoro-[1,1′-biphenyl]-4-yl)acetamide], the IC50 was less than 50 nM.
Turning to `Cn1ncc2cc(-c3ccc(C(=O)C(=O)N[C@H](CN4CCCC4)[C@H](O)c4ccc(OC5CC5)c(Cl)c4)cc3)ccc21` [Compound 205, N-((1R,2R)-1-(3-chloro-4-cyclopropoxyphenyl)-1-hydroxy-3-(pyrrolidin-1-yl)propan-2-yl)-2-(4-(1-methyl-1H-indazol-5-yl)phenyl)-2-oxoacetamide], the IC50 is less than 50 nM.
For `Cn1ncc2cc(-c3ccc(C(=O)C(=O)N[C@H](CN4CCCC4)[C@H](O)c4ccc5c(c4)OCCO5)cc3)ccc21` [Compound 207, N-((1R,2R)-1-(2,3-dihydrobenzo[b][1,4]dioxin-6-yl)-1-hydroxy-3-(pyrrolidin-1-yl)propan-2-yl)-2-(4-(1-methyl-1H-indazol-5-yl)phenyl)-2-oxoacetamide], the IC50 was less than 50 nM.
Regarding `O=C(N[C@H](CN1CCCC1)[C@H](O)c1ccc(OC2CC2)c(F)c1)C(=O)c1ccc(-c2ccc(F)cc2)cc1` [Compound 208, N-((1R,2R)-1-(4-cyclopropoxy-3-fluorophenyl)-1-hydroxy-3-(pyrrolidin-1-yl)propan-2-yl)-2-(4′-fluoro-[1,1′-biphenyl]-4-yl)-2-oxoacetamide], the IC50 was less than 50 nM.
In the case of `O=C(N[C@H](CN1CCCC1)[C@H](O)c1ccc(OC2CC2)c(Cl)c1)C(=O)c1ccc2ccccc2c1` [Compound 209, N-((1R,2R)-1-(3-chloro-4-cyclopropoxyphenyl)-1-hydroxy-3-(pyrrolidin-1-yl)propan-2-yl)-2-(naphthalen-2-yl)-2-oxoacetamide], the IC50 is less than 50 nM.
Turning to `O=C(N[C@H](CN1CCCC1)[C@H](O)c1cc(F)c2c(c1)OCCO2)C(F)(F)c1cccc(Oc2ccc(F)cc2)c1` [Compound 210, 2,2-difluoro-N-((1R,2R)-1-(8-fluoro-2,3-dihydrobenzo[b][1,4]dioxin-6-yl)-1-hydroxy-3-(pyrrolidin-1-yl)propan-2-yl)-2-(3-(4-fluorophenoxy)phenyl)acetamide], the IC50 was less than 50 nM.
As to `Cn1ncc2cc(-c3ccc(C(F)(F)C(=O)N[C@H](CN4CCCC4)[C@H](O)c4ccc5c(c4)OCCO5)cc3)ccc21` [Compound 212, N-((1R,2R)-1-(2,3-dihydrobenzo[b][1,4]dioxin-6-yl)-1-hydroxy-3-(pyrrolidin-1-yl)propan-2-yl)-2,2-difluoro-2-(4-(1-methyl-1H-indazol-5-yl)phenyl)acetamide], the IC50 is less than 50 nM.
The same measure, in the same setting: the figure for `O=C(N[C@H](CN1CCCC1)[C@H](O)c1ccc(OC2CC2)c(Cl)c1)C(=O)c1ccc(-c2ccccn2)cc1` [Compound 214, N-((1R,2R)-1-(3-chloro-4-cyclopropoxyphenyl)-1-hydroxy-3-(pyrrolidin-1-yl)propan-2-yl)-2-oxo-2-(4-(pyridin-2-yl)phenyl)acetamide] is less than 50 nM.
The same measure, in the same setting: then `Cn1ncc2cc(C(=O)C(=O)N[C@H](CN3CCCC3)[C@H](O)c3ccc4c(c3)OCCO4)ccc21` [Compound 216, N-((1R,2R)-1-(2,3-dihydrobenzo[b][1,4]dioxin-6-yl)-1-hydroxy-3-(pyrrolidin-1-yl)propan-2-yl)-2-(1-methyl-1H-indazol-5-yl)-2-oxoacetamide], with less than 50 nM; and `Cn1ncc2cc(C(=O)C(=O)N[C@H](CN3CCCC3)[C@H](O)c3cc(F)c4c(c3)OCCO4)ccc21` [Compound 217, N-((1R,2R)-1-(8-fluoro-2,3-dihydrobenzo[b][1,4]dioxin-6-yl)-1-hydroxy-3-(pyrrolidin-1-yl)propan-2-yl)-2-(1-methyl-1H-indazol-5-yl)-2-oxoacetamide], with less than 50 nM.
Still for that read-out and setting: then `Cn1ncc2cc(-c3ccc(C(=O)C(=O)N[C@H](CN4CCCC4)[C@H](O)c4cc(F)c5c(c4)OCCO5)cc3)ccc21` [Compound 220, N-((1R,2R)-1-(8-fluoro-2,3-dihydrobenzo[b][1,4]dioxin-6-yl)-1-hydroxy-3-(pyrrolidin-1-yl)propan-2-yl)-2-(4-(1-methyl-1H-indazol-5-yl)phenyl)-2-oxoacetamide], with less than 50 nM; and `Cn1ncc2cc(-c3ccc(C(=O)C(=O)N[C@H](CN4CCC4)[C@H](O)c4cc(F)c5c(c4)OCCO5)cc3)ccc21` [Compound 223, N-((1R,2R)-3-(azetidin-1-yl)-1-(8-fluoro-2,3-dihydrobenzo[b][1,4]dioxin-6-yl)-1-hydroxypropan-2-yl)-2-(4-(1-methyl-1H-indazol-5-yl)phenyl)-2-oxoacetamide], with less than 50 nM.
